Test results as given in patent US12590062B2, “PD-1/PD-L1 inhibitors” (Gilead Sciences, Inc., priority 2017, dated 2026).

What was measured:
PD-1/PD-L1 = PD-1/PD-L1 (Homo sapiens, UniProt Q9NZQ7); assay: PD-1/PD-L1 biochemical protein-protein interaction assay (ALPHA); format: binding; conditions: 0.3 nM His tagged PD-L1, 2.5 nM biotinylated Fc-PD-1, 60 minutes at 25° C., read-out: IC50 PD-L1-PD-1 Alpha IC50-mono PD-L1-fcP-D1
Procedure: Biological Activity PD-1/PD-L1 & CTLA/CD80 Biochemical Protein-Protein Interaction Assay
Compounds were tested in biochemical protein-protein interaction assays to determine if they can specifically block the interaction between the extracellular domains of PD-1/PD-L1 or CTLA/CD80. Binding of the protein pairs is measured using a bead based Amplified Luminescent Proximity Homogeneous Assay (ALPHA) platform. Binding of each protein pair results in proximity of the donor and acceptor beads which leads to an increase in ALPHA signal. Disruption of the protein-protein interaction with a test compound results in a decrease in ALPHA signal. Assays are performed in 25 mM Hepes (pH 7.4), 150 mM NaCl, 3.4 mM EDTA, 0.005% Tween 20, and 0.01% BSA. Final protein concentration in the assays were 0.3 nM (His tagged PD-L1), 2.5 nM (biotinylated Fc-PD-1), 1 nM (His tagged CTLA4) and 1 nM (biotinylated CD80). After an assay reaction time of 60 minutes at 25° C., binding was measured with addition of 20 μg/mL ALPHA assay acceptor beads (anti-His coated) and […] ALPHA assay donor beads (streptavidin coated). IC50 values were calculated from the fit of the dose-response curves to a four-parameter equation. Representative data are shown below in Table 1.

PD-1/PD-L1 interaction = molecular target: T1, PD-1/PD-L1 interaction (Homo sapiens, UniProt Q9NZQ7); assay: PD-1/PD-L1 NFAT reporter co-culture assay; format: cell-based; conditions: Jurkat PD-1 NFAT-luciferase cells co-cultured with aAPC-PD-L1 CHO cells, 6 hrs at 37° C.; read-out: EC50 NFAT Luciferase
T1 construct: expressed in transfected cells; host or cells: CHO cells (aAPC-PD-L1) co-cultured with Jurkat cells overexpressing PD-1 and an NFAT-luciferase reporter
T1 sequence (Q9NZQ7 19-290): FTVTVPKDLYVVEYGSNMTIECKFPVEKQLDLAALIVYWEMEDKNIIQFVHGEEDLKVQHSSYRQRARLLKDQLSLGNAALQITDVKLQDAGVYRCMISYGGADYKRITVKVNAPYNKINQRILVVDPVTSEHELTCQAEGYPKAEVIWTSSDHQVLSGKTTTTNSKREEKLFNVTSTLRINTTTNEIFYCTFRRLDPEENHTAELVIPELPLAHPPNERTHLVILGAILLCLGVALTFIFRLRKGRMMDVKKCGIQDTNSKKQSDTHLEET
Summary of the method: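 Restoration of TCR-driven NFAT luciferase signal: 6 h, 37 °C co-culture of PD-1 Jurkat reporter cells (pre-mixed with compound) on overnight-seeded PD-L1/anti-CD3 CHO monolayer. ONE-Glo luminescence; dose-response fitted to four-parameter equation for EC50.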

PD-1/PD-L1, sequence (Q9NZQ7 19-238 limits assumed): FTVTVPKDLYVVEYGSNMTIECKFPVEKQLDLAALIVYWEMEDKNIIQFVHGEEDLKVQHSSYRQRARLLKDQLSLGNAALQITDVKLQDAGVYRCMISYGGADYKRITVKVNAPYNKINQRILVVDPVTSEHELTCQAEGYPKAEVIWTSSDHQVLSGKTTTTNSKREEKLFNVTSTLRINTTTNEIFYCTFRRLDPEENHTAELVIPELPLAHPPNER

Row | Compound | IC50 (PD-1/PD-L1) | EC50 (PD-1/PD-L1 interaction)
1 | C=Cc1cc(CNCCO)c(OCc2cncc(C#N)c2)cc1OCc1cccc(-c2cccc(COc3cc(OCc4cncc(C#N)c4)c(CNCCO)cc3C=C)c2C)c1C [Example 36, 5,5′-((((((2,2′-dimethyl-[1,1′-biphenyl]-3,3′-diyl)bis(methylene))bis(oxy))bis(6-(((2-hydroxyethyl)amino)methyl)-4-vinyl-3,1-phenylene))bis(oxy))bis(methylene))dinicotinonitrile] | 21.6 nM | 1070 nM
2 | Cc1c(COc2cc(OCc3cncc(C#N)c3)c(CN3C[C@@H](O)C[C@H]3C(=O)O)cc2Cl)cccc1-c1cccc(COc2cc(OCc3cncc(C#N)c3)c(CN3C[C@@H](O)C[C@H]3C(=O)O)cc2Cl)c1C [Example 58, (2S,2′S,4S,4'S)-1,1′-(((((2,2′-dimethyl-[1,1′-biphenyl]-3,3′-diyl)bis(methylene))bis(oxy))bis(5-chloro-2-((5-cyanopyridin-3-yl)methoxy)-4,1-phenylene))bis(methylene))bis(4-hydroxypyrrolidine-2-carboxylic acid)] | 0.3 nM | 822 nM
3 | Cc1c(COc2ccc(CNCCO)cc2)cccc1-c1cccc(COc2cc(OCc3cncc(C#N)c3)c(CNCCO)cc2Cl)c1C [Example 69, 5-((4-chloro-2-(((2-hydroxyethyl)amino)methyl)-5-((3′-((4-(((2-hydroxyethyl)amino)methyl)phenoxy)methyl)-2,2′-dimethyl-[1,1′-biphenyl]-3-yl)methoxy)phenoxy)methyl)nicotinonitrile] | 14.2 nM | 1740 nM
4 | CC(=O)NCCNCc1cc(Cl)c(OCc2cccc(-c3cccc(COc4cc(OCc5cncc(C#N)c5)c(CNCCNC(C)=O)cc4Cl)c3C)c2C)cc1OCc1cncc(C#N)c1 [Example 70, N,N′-(((((((2,2′-dimethyl-[1,1′-biphenyl]-3,3′-diyl)bis(methylene))bis(oxy))bis(5-chloro-2-((5-cyanopyridin-3-yl)methoxy)-4,1-phenylene))bis(methylene))bis(azanediyl))bis(ethane-2,1-diyl))diacetamide] | 10.6 nM | 902 nM
5 | Cc1c(COc2ccc(CNCCO)cc2Cl)cccc1-c1cccc(COc2cc(OCc3cncc(C#N)c3)c(CNCCO)cc2Cl)c1C [Example 71, 5-((4-chloro-5-((3′-((2-chloro-4-(((2-hydroxyethyl)amino)methyl)phenoxy)methyl)-2,2′-dimethyl-[1,1′-biphenyl]-3-yl)methoxy)-2-(((2-hydroxyethyl)amino)methyl)phenoxy)methyl)nicotinonitrile] | 26.5 nM | 1030 nM
6 | COc1nc(OCc2cccc(-c3cccc(COc4ccc(CNCCO)c(OC)n4)c3C#N)c2C)ccc1CNCCO [Example 72, 3,3′-bis(((5-(((2-hydroxyethyl)amino)methyl)-6-methoxypyridin-2-yl)oxy)methyl)-2′-methyl-[1,1′-biphenyl]-2-carbonitrile] | 8 nM | 2510 nM
7 | Cc1c(COc2cc(OCc3cncc(C#N)c3)c(CNCCCO)cc2Cl)cccc1-c1cccc(COc2cc(OCc3cncc(C#N)c3)c(CNCCCO)cc2Cl)c1C [Example 73, 5,5′-((((((2,2′-dimethyl-[1,1′-biphenyl]-3,3′-diyl)bis(methylene))bis(oxy))bis(4-chloro-6-(((3-hydroxypropyl)amino)methyl)-3,1-phenylene))bis(oxy))bis(methylene))dinicotinonitrile] | 56.1 nM | 2620 nM

Results, then the molecule that gave them:

Row | IC50 (PD-1/PD-L1) | EC50 (PD-1/PD-L1 interaction) | Compound
8 | 0.4 nM | 322 nM | Cc1c(COc2cc(OCc3cncc(C#N)c3)c(CNC[C@@H](O)CC(=O)O)cc2Br)cccc1-c1cccc(COc2cc(OCc3cncc(C#N)c3)c(CNC[C@@H](O)CC(=O)O)cc2Br)c1C [Example 33, (3S,3′S)-4,4′-((((((2,2′-dimethyl-[1,1′-biphenyl]-3,3′-diyl)bis(methylene))bis(oxy))bis(5-bromo-2-((5-cyanopyridin-3-yl)methoxy)-4,1-phenylene))bis(methylene))bis(azanediyl))bis(3-hydroxybutanoic acid)]
9 | 2.8 nM | 2670 nM | Cc1c(COc2cc(OCc3cncc(C#N)c3)c(CNC[C@@H](O)CC(=O)O)cc2Br)cccc1-c1cccc(COc2cc(OCc3cncc(C#N)c3)c(CN3C[C@@H](O)CC3=O)cc2Br)c1C [Example 38, (S)-4-((5-bromo-4-((3′-((2-bromo-5-((5-cyanopyridin-3-yl)methoxy)-4-(((S)-4-hydroxy-2-oxopyrrolidin-1-yl)methyl)phenoxy)methyl)-2,2′-dimethyl-[1,1′-biphenyl]-3-yl)methoxy)-2-((5-cyanopyridin-3-yl)methoxy)benzyl)amino)-3-hydroxybutanoic acid]
10 | 0.1 nM | 176 nM | Cc1c(COc2nc(OCc3cncc(S(C)(=O)=O)c3)c(CN[C@](C)(CO)C(=O)O)cc2Br)cccc1-c1cccc(COc2nc(OCc3cncc(S(C)(=O)=O)c3)c(CN[C@](C)(CO)C(=O)O)cc2Br)c1C [Example 40, (2R,2′R)-2,2′-((((((2,2′-dimethyl-[1,1′-biphenyl]-3,3′-diyl)bis(methylene))bis(oxy))bis(5-bromo-2-((5-(methylsulfonyl)pyridin-3-yl)methoxy)pyridine-6,3-diyl))bis(methylene))bis(azanediyl))bis(3-hydroxy-2-methylpropanoic acid)]
11 | 0.1 nM | 1250 nM | COc1nc(OCc2cccc(-c3cccc(COc4nc(OC)c(CN5CC[C@H]5C(=O)O)cc4Br)c3C)c2C)c(Br)cc1CN1CC[C@H]1C(=O)O [Example 59, (2S,2′S)-1,1′-(((((2,2′-dimethyl-[1,1′-biphenyl]-3,3′-diyl)bis(methylene))bis(oxy))bis(5-bromo-2-methoxypyridine-6,3-diyl))bis(methylene))bis(azetidine-2-carboxylic acid)]
12 | 2.3 nM | ≥ 50000 nM | COc1nc(OCc2cccc(-c3cccc(COc4nc(OC)c(CN5CC[C@H]5C(=O)O)cc4Br)c3C)c2C)ccc1CN1CC[C@H]1C(=O)O [Example 60, (S)-1-((6-((3′-(((3-bromo-5-(((S)-2-carboxyazetidin-1-yl)methyl)-6-methoxypyridin-2-yl)oxy)methyl)-2,2′-dimethyl-[1,1′-biphenyl]-3-yl)methoxy)-2-methoxypyridin-3-yl)methyl)azetidine-2-carboxylic acid]
13 | 1 nM | 1320 nM | Cc1c(COc2cc(O)c(CNC[C@@H](O)CC(=O)O)cc2Cl)cccc1-c1cccc(COc2cc(OCc3cncc(C#N)c3)c(CNC[C@@H](O)CC(=O)O)cc2Cl)c1C [Example 67, (S)-4-((4-((3′-((4-((((S)-3-carboxy-2-hydroxypropyl)amino)methyl)-2-chloro-5-((5-cyanopyridin-3-yl)methoxy)phenoxy)methyl)-2,2′-dimethyl-[1,1′-biphenyl]-3-yl)methoxy)-5-chloro-2-hydroxybenzyl)amino)-3-hydroxybutanoic acid]
14 | 0.9 nM | 10000 nM | COc1nc(OCc2cccc(-c3cccc(COc4ccc(CNCC(O)C(F)(F)C(=O)O)c(OC)n4)c3C)c2C)ccc1CNCC(O)C(F)(F)C(=O)O (stereo not shown) [Example 84, 4,4′-((((((2,2′-dimethyl-[1,1′-biphenyl]-3,3′-diyl)bis(methylene))bis(oxy))bis(2-methoxypyridine-6,3-diyl))bis(methylene))bis(azanediyl))bis(2,2-difluoro-3-hydroxybutanoic acid)]
15 | 0.8 nM | 863 nM | COc1nc(OCc2cccc(-c3cccc(COc4nc(OC)c(CNC[C@@H](O)CC(=O)O)cc4C)c3C)c2C)c(C)cc1CNC[C@@H](O)CC(=O)O [Example 119, (3S,3′S)-4,4′-((((((2,2′-dimethyl-[1,1′-biphenyl]-3,3′-diyl)bis(methylene))bis(oxy))bis(2-methoxy-5-methylpyridine-6,3-diyl))bis(methylene))bis(azanediyl))bis(3-hydroxybutanoic acid)]
16 | 2 nM | 1300 nM | C=Cc1cc(CNC[C@@H](O)CC(=O)O)c(OC)nc1OCc1cccc(-c2cccc(COc3nc(OC)c(CNC[C@@H](O)CC(=O)O)cc3C=C)c2C)c1C [Example 120, (3S,3′S)-4,4′-((((((2,2′-dimethyl-[1,1′-biphenyl]-3,3′-diyl)bis(methylene))bis(oxy))bis(2-methoxy-5-vinylpyridine-6,3-diyl))bis(methylene))bis(azanediyl))bis(3-hydroxybutanoic acid)]
17 | 1 nM | 392 nM | Cc1c(COc2nc(OCc3cncs3)c(CNC[C@@H](O)CC(=O)O)cc2Br)cccc1-c1cccc(COc2nc(OCc3cncs3)c(CNC[C@@H](O)CC(=O)O)cc2Br)c1C [Example 138, (3S,3′S)-4,4′-((((((2,2′-dimethyl-[1,1′-biphenyl]-3,3′-diyl)bis(methylene))bis(oxy))bis(5-bromo-2-(thiazol-5-ylmethoxy)pyridine-6,3-diyl))bis(methylene))bis(azanediyl))bis(3-hydroxybutanoic acid)]
